Measured values from US9173920B2, “Methods of treating muscular wasting diseases using NF-KB activation inhibitors” (TheraLogics, Inc., priority 2006, dated 2015).

System: mdx−/− mice
Assay: Diaphragm muscle force measurement after treating mdx−/− mice with peptides comprising NEMO binding domains (Example 3)
Format: in vivo
Details: for treated mice in which force output was higher: diaphragm muscle
Procedure: In this Example, three week old male mdx−/− mice were treated with various peptides comprising NEMO binding domains. The diaphragm muscles of the mice were then evaluated to determine the ability of the peptides to treat muscle wasting in the mdx mice.
Three week old mdx−/− mice were treated by intraperitoneal injections with 200 μg of either a wild type peptide (SEQ ID NO 19) comprising a NEMO binding domain or a mutant peptide (SEQ ID NO 20). The mice were injected every three days for a total trial period of 27 days. After 27 days, the mice were sacrificed and the diaphragm muscles were removed.
The diaphragm muscles were placed in a chamber filled with Ringer solution and perfused continuously with an O2/CO2 mixture. The muscles were then attached using a steel hook to a force transducer and subsequently stimulated at varying frequencies. At each frequency, forces were allowed to reach a steady state before the data was recorded.

[1] = three week old male mdx−/− mice, 200 μg intraperitoneal every three days for 27 days, FIG. 5

| Substance | effect on dystrophic phenotype in affected mice (injection, summary statement on Example 3) | treated mice in which force output was higher [1] | tetanic contractions (force) of diaphragm muscles at various stimulation frequencies (three week old male mdx−/− mice, 200 μg intraperitoneal every three days for 27 days, excised diaphragm in Ringer solution, compared to mutant peptide, FIG. 5) |
| --- | --- | --- | --- |
| wild type peptide: wild type peptide (SEQ ID NO 19) comprising a NEMO binding domain (TALDWSWLQTE; NBD mutants) | inhibit the dystrophic phenotype | three of the four | generally higher tentanic contractions |
| mutant peptide: mutant peptide (SEQ ID NO 20) used as comparator to the wild type NEMO binding domain peptide (TALDASALQTE; NBD mutants) [reference compound] |  | one of the three |  |
